Experimental data published in article PMC7614232 (Organic & biomolecular chemistry, 2022).

Legend:
[1] = target: T1, GMIIb (Golgi α-mannosidase) (Drosophila melanogaster, UniProt Q9VF33); assay: α-mannosidase inhibition assay with pNP-Man, GMIIb; format: biochemical; conditions: for SI^a = IC50(LManII)/IC50(GMIIb): selectivity index
T1 sequence (Q9VF33 31-1249): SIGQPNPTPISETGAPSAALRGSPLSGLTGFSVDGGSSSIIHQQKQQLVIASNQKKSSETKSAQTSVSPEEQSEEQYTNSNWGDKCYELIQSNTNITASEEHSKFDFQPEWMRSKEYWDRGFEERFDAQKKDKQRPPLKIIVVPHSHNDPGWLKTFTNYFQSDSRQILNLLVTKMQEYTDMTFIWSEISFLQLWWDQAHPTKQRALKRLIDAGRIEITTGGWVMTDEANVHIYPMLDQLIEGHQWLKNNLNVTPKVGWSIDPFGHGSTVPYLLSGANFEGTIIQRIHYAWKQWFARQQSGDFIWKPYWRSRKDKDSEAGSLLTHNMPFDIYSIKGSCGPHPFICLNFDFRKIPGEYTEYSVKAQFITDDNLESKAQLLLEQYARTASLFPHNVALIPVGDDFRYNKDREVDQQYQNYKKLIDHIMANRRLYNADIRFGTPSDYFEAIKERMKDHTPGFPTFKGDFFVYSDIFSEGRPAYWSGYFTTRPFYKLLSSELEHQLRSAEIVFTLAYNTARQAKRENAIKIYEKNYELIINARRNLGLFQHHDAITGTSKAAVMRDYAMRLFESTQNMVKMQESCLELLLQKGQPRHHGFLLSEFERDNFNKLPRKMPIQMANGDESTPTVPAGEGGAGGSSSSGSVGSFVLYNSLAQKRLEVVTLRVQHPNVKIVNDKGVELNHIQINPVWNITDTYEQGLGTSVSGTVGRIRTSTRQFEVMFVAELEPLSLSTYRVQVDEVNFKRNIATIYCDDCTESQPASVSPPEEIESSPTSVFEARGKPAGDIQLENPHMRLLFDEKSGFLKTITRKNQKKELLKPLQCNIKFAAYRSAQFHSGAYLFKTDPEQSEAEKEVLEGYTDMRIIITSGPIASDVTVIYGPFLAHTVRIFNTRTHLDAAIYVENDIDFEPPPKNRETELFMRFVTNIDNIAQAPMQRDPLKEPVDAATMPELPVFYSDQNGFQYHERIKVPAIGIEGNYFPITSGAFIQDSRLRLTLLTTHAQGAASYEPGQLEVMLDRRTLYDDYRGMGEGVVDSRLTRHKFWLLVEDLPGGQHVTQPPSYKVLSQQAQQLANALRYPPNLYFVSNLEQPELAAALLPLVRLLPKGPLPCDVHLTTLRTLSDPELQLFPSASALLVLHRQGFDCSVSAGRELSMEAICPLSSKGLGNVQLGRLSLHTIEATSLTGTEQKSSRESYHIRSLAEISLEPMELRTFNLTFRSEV

[2] = target: T2, AMAN-2 (Golgi α-mannosidase) (Caenorhabditis elegans, UniProt Q2PJ74); assay: α-mannosidase inhibition assay with pNP-Man, AMAN-2; format: biochemical; conditions: for SI^b = IC50(JBMan)/IC50(AMAN-2): selectivity index
T2 sequence (Q2PJ74 27-1145): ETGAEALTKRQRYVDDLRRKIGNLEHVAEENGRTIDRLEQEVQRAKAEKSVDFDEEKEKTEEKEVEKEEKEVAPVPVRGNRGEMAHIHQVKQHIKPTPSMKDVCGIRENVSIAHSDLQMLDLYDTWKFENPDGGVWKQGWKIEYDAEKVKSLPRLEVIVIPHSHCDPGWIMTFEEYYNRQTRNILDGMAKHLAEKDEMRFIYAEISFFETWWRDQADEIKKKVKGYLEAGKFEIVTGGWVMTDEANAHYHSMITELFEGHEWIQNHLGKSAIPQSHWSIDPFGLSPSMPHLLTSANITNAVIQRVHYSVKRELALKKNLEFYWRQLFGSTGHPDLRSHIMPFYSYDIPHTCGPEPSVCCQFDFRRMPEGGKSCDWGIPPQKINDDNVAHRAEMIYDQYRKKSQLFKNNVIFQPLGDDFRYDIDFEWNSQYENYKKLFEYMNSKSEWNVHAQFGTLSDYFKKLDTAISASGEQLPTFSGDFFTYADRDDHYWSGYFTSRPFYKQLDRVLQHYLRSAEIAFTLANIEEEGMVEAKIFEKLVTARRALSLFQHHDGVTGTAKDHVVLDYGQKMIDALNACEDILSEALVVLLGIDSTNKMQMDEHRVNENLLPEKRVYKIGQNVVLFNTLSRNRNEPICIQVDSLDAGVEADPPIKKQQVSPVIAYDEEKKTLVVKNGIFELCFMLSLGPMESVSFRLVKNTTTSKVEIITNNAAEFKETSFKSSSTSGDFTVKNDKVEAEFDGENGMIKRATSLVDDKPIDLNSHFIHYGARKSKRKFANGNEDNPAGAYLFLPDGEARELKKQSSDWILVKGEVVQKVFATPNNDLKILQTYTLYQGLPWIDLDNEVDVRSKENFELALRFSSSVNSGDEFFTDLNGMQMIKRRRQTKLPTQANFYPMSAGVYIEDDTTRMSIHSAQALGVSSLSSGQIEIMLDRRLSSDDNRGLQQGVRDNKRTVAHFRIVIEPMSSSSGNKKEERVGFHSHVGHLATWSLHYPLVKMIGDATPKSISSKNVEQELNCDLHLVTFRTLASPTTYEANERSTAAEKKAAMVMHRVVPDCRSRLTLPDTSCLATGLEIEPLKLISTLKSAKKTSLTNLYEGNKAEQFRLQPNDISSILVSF

[3] = system: dGMII (Golgi α-mannosidase II); conditions: previous pKa calculations; cited from earlier work
[4] = in aqueous solution; cited from earlier work

SMILES	SI^a = IC50(LManII)/IC50(GMIIb) [1]	SI^b = IC50(JBMan)/IC50(AMAN-2) [2]	Ki ([1]; read-out: Ki GMIIb, Dixon plots, pNP-Man 0.5-4 mM, pH 6.0) [nM]	Ki ([2]; read-out: Ki AMAN-2, Dixon plots, pNP-Man 0.5-4 mM, pH 6.0) [nM]	pKa bound in complex with dGMII [3]	pKa [4]
Cl.OC[C@H]1NC[C@@H](O)[C@H]1O [Compound 6, 1,4-Dideoxy-1,4-imino-d-lyxitol hydrochloride]	8	5	–	–	–	–
OC[C@@H](O)[C@H]1NC[C@@H](O)[C@H]1O [DIM, 1,4-dideoxy-1,4-imino-D-mannitol, reference compound]	13	1	130	680	–	–
O[C@H]1[C@H]2[C@H](O)CCCN2C[C@H]1O [Swainsonine, (1S,2R,8R,8aR)-trihydroxy-indolizidine]	–	–	–	–	5.0	7.5
